How the values were obtained:
[1] = tested on: Notch target genes HEY1 and HES1; experiment: HEY1 and HES1 expression in ER+ cell lines (real-time PCR, Western Blot); format: cell-based, human; settings: for expression of HEY1 and HES1: MCF-7, T47D, ZR-75-1, 6 days, in the ALDH+ subpopulation
Procedure: MCF7, T47D and ZR-75-1 cell lines were purchased from American Tissue Culture Collection (ATCC) and cultured in DMEM/F-12, GlutaMAX (Gibco) with 10% FBS (Gibco). Cells were treated for 3 days or 6 days with ethanol (control), 10^-6M 4-OH-tamoxifen or 10^−7M fulvestrant and/or with 10 μM of gamma-secretase inhibitor RO4929097 (Cellagen Technology) or DMSO (control).
Total RNA was extracted using the RNeasy Plus Mini Kit (QIAGEN, 74104) and the concentration and purity determined using an ND-1000 spectrophotometer (NanoDrop Technologies). Reverse transcription of 1 μg of RNA was performed with Oligo(dT) using the TaqMan Reverse Transcription Reagents from Applied Biosystems (N8080234). Samples were incubated on a thermal cycler (MJ Research) for 10 minutes at 25° C., 30 minutes at 48° C. and 5 minutes at 95° C. Quantitative real-time PCR reactions were set up in triplicate in 384-well plates and performed on the 7900 PCR machine (Applied Biosystems) using TaqMan® Universal PCR Master Mix (Applied Biosystems) and probes from Universal Probe Library (Roche). Conditions used for amplification of cDNA fragments were as follows: 95° C. for 5 min, 40 cycles of amplification-95 C for 15 sec, 60 C for 1 min. The expression levels were calculated using the ΔΔCt method and normalised to the housekeeping genes 36B4 and GAPDH. The sequences of the primers and probes used can be found in the table below.
Proteins were extracted with Protein Lysis Buffer (25 mM HEPES, 50 mM NaCl, 30 mM NaPP, 50 mM NaF, 1% Triton-X-100, 10% Glycerol, 5 mM EDTA, Protease Inhibitor cocktail, 1 μM PMSF). Lysates were placed on a rotator for 1 hour at 4° C., then were centrifuged at 10000 g at 4° C. for 10 min, and supernatants were collected. Protein concentrations were assessed using the BCA Protein Assay Kit (Thermo Scientific, 23225). Proteins were separated on a 10% gel (Biorad, 456-1033) by SDS-PAGE at 200V for 1 hour, and then were transferred on polyvinylidene difluoride (PVDF) membranes (BioRad, 170-4157) at 25 V/1,300 mA for 15 min using a Trans Blot Turbo (BioRad, 170-4155). […]

[2] = tested on: MCF-7 cells; experiment: In vivo tumor initiation of pre-treated MCF-7 cells (limiting dilution, ELDA); design: species or system mice; settings: for in vivo tumor initiation capacity: 6 days in vitro pre-treatment, 100,000 MCF-7 cells, Nude mice, day 90; for enrichment in tumor-initiating cell frequency (ELDA): MCF-7 pre-treated six days, limiting dilution in NSG mice, day 60
Procedure: To determine tumor initiation capacity of MCF-7 cells or metastatic (BB3RC31) PDX cells treated in vitro or in vivo, respectively, Nude or NSG mice were injected subcutaneously with cells in mammosphere media mixed 1:1 with Matrigel. 8 μg/ml of 17-beta estradiol was administered in drinking water or 90-day slow release estrogen pellets were implanted sub-cutaneously into mice two days before cell injection (0.72 mg, Innovative Research of America). […] Positive tumor growth was assessed at day 60 or 90 after cell injection by determining the mice bearing a tumor greater than 100 mm^3 and is represented as mice positive for growth/mice tested (n=4 per condition in all experiments). p values were calculated with Chi-squared test.

SMILES | HEY1 and HES1 mRNA and protein levels ([1]; MCF-7 cells pre-treated six days with RO4929097 10 μM) | enrichment in tumor-initiating cell frequency following tamoxifen or fulvestrant pre-treatment ([2]; co-treatment with RO4929097 10 μM) | expression of HEY1 and HES1 [1] | in vivo tumor initiation capacity [2] | enrichment in tumor-initiating cell frequency (ELDA) [2]
CC(C)(C(=O)NCC(F)(F)C(F)(F)F)C(=O)N[C@@H]1C(=O)Nc2ccccc2-c2ccccc21 [RO4929097] | decreased | reversed | – | – | –
C[C@]12CC[C@@H]3c4ccc(O)cc4C[C@@H](CCCCCCCCC[S+]([O-])CCCC(F)(F)C(F)(F)F)[C@H]3[C@@H]1CC[C@@H]2O (some centres unmarked) [fulvestrant] | – | – | preferentially increased | enriched | 11 fold
CC/C(=C(\c1ccccc1)c1ccc(OCCN(C)C)cc1)c1ccccc1 [tamoxifen, (Z)-2-[4-(1,2-diphenylbut-1-enyl)phenoxy]-N,N-dimethylethanamine] | – | – | preferentially increased | enriched | 11 fold

From patent publication US20160376659A1, “Breast Cancer Biomarker” (The University of Manchester, priority 2015, published 2016)
